Data on 15 molecules can be found in ChEMBL document CHEMBL3991601, “The target landscape of clinical kinase drugs” (Science, 2017).

One may read the Kd as the constant that tells how readily two partners part at equilibrium.

Where a name gives a salt, the structure may show the parent alone. Active and inactive are the calls of the source.

The target in assay [1] is Atypical kinase COQ8A, mitochondrial (Homo sapiens, UniProt Q8NI60).
For assay [2], the target named is Serine/threonine-protein kinase/endoribonuclease IRE2 (Homo sapiens, UniProt Q76MJ5).
Assay [3] deals with LIM domain kinase 1 (Homo sapiens, UniProt P53667).
Assay [4] deals with Serine/threonine-protein kinase PAK 2 (Homo sapiens, UniProt Q13177).
Assay [5] concerns the target T1, Structural maintenance of chromosomes protein 1A (Homo sapiens, UniProt Q14683).
T1 sequence (Q14683 whole entry): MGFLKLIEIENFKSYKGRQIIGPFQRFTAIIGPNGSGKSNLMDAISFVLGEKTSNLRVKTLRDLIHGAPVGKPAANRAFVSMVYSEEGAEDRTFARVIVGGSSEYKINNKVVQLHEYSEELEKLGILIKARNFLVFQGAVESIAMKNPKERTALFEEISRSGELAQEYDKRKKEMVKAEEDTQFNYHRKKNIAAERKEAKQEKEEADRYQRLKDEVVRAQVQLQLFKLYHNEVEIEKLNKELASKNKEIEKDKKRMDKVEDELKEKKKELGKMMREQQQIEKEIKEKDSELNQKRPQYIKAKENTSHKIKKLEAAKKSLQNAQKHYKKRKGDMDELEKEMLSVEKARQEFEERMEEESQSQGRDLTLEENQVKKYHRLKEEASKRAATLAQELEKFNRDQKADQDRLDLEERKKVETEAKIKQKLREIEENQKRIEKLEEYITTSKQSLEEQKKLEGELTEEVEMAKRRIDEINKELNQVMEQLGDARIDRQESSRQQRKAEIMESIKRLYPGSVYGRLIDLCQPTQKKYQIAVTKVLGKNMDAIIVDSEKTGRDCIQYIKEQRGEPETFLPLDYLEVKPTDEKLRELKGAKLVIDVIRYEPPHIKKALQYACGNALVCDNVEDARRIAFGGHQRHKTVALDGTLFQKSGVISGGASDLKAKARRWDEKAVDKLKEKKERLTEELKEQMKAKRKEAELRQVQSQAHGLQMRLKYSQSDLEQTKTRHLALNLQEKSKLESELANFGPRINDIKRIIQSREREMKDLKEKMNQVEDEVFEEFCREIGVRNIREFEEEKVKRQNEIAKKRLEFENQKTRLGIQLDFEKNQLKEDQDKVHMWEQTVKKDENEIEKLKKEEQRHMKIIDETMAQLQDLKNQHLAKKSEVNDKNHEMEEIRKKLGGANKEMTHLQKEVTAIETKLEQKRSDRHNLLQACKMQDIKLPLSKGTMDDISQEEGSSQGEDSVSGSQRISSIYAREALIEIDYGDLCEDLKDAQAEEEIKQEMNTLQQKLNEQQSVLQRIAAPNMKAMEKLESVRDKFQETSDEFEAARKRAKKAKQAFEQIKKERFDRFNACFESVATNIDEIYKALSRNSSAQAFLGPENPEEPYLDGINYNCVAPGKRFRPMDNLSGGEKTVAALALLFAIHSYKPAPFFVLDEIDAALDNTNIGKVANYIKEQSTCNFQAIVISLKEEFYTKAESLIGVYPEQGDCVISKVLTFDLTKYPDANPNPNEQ

Assay [6] deals with T2, Non-receptor tyrosine-protein kinase TNK1 (Homo sapiens, UniProt Q13470).
T2 sequence (Q13470 whole entry): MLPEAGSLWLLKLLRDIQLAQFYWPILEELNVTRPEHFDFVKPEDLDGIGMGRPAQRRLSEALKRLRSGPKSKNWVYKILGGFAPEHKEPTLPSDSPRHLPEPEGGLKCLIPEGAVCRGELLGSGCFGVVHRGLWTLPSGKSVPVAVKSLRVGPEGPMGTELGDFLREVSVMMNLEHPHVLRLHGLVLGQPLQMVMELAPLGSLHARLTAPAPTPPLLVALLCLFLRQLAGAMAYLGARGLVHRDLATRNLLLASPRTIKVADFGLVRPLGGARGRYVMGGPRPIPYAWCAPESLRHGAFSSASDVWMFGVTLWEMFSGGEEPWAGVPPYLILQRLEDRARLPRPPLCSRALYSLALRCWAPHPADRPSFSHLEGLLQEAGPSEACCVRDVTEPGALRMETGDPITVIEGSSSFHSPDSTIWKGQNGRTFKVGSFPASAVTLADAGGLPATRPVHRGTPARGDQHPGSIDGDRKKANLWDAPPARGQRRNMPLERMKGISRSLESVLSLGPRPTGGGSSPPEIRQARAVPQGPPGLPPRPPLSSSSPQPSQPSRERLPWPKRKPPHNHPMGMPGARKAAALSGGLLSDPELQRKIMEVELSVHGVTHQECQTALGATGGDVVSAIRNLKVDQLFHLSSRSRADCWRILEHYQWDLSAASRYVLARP

In assay [7] the target is T3, ATP-dependent RNA helicase DDX1 (Homo sapiens, UniProt Q92499).
T3 sequence (Q92499 whole entry): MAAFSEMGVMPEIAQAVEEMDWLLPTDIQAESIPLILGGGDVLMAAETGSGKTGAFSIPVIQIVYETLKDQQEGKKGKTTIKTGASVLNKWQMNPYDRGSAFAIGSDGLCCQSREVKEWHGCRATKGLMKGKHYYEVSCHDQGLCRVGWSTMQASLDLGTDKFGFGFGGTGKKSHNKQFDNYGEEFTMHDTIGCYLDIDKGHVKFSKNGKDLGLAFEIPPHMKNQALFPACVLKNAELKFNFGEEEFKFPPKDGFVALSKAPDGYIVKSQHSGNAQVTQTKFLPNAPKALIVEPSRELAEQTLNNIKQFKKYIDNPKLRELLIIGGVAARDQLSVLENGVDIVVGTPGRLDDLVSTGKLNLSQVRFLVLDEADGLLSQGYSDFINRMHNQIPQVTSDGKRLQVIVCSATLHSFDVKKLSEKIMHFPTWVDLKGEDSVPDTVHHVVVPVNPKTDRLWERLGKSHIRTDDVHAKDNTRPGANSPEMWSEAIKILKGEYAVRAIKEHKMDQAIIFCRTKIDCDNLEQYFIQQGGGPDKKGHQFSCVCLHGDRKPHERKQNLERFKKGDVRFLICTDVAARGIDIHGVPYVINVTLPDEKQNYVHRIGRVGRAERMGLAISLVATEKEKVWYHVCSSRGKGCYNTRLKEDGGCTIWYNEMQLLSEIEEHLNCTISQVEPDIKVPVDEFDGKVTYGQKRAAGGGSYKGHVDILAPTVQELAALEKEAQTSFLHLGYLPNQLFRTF
Also: in the data inactive means no Kd found up to 30 µM.

Serine/threonine-protein kinase/endoribonuclease IRE2, sequence (Q76MJ5 whole entry, the tested form may be a part): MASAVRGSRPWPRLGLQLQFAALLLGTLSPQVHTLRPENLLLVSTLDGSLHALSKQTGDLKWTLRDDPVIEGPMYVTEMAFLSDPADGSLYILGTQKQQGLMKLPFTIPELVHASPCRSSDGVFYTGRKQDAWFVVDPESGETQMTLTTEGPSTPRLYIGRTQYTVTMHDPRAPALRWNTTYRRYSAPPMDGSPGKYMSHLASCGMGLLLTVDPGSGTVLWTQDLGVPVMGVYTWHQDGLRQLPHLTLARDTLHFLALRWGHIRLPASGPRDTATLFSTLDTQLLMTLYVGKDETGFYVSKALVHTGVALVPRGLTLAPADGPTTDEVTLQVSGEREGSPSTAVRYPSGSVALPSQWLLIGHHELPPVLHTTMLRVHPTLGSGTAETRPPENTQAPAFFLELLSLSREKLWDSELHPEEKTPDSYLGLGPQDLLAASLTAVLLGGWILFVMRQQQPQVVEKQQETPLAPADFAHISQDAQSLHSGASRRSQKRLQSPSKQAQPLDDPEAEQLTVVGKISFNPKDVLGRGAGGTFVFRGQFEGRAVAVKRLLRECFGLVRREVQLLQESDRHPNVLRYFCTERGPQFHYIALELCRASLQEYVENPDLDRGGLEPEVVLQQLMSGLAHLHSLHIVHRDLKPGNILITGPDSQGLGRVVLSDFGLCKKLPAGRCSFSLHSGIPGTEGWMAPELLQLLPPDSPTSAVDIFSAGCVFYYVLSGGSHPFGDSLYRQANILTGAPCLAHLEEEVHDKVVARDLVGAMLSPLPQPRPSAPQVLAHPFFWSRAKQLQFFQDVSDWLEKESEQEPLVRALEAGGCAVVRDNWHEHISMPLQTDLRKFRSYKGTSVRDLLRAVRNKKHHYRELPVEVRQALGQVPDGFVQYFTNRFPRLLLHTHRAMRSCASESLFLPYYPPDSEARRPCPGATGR
Atypical kinase COQ8A, mitochondrial, sequence (Q8NI60 whole entry): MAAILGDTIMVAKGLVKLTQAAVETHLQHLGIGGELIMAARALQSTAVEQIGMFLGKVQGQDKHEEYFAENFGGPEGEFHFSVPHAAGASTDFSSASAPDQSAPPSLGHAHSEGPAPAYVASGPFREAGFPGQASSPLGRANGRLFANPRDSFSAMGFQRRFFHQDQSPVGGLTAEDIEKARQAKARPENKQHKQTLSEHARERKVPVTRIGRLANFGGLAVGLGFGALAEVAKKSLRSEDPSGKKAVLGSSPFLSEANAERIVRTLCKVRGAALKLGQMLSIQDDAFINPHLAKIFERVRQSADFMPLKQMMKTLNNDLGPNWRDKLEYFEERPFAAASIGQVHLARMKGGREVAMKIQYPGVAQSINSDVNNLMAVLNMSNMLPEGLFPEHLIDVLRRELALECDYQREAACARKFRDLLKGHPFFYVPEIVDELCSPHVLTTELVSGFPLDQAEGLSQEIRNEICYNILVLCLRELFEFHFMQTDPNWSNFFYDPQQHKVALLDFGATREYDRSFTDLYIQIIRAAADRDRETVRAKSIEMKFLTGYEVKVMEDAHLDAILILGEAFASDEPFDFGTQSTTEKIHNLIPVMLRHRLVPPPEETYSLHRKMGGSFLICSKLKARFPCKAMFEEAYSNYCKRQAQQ
Serine/threonine-protein kinase PAK 2, sequence (Q13177 whole entry): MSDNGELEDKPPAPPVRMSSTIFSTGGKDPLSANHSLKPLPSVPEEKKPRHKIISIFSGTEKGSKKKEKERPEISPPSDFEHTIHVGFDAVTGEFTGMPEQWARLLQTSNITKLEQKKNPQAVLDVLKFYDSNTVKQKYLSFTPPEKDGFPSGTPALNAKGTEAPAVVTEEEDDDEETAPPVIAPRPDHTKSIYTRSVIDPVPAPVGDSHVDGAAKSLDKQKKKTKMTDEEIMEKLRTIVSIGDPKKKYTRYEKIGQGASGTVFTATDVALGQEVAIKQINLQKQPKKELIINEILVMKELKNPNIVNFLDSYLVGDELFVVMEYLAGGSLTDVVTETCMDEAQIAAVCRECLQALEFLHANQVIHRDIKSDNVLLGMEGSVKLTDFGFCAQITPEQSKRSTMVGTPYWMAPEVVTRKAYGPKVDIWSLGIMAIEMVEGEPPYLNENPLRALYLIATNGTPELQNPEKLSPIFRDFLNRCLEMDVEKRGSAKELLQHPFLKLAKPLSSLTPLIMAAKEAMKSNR
LIM domain kinase 1, sequence (P53667 whole entry, the tested form may be a part): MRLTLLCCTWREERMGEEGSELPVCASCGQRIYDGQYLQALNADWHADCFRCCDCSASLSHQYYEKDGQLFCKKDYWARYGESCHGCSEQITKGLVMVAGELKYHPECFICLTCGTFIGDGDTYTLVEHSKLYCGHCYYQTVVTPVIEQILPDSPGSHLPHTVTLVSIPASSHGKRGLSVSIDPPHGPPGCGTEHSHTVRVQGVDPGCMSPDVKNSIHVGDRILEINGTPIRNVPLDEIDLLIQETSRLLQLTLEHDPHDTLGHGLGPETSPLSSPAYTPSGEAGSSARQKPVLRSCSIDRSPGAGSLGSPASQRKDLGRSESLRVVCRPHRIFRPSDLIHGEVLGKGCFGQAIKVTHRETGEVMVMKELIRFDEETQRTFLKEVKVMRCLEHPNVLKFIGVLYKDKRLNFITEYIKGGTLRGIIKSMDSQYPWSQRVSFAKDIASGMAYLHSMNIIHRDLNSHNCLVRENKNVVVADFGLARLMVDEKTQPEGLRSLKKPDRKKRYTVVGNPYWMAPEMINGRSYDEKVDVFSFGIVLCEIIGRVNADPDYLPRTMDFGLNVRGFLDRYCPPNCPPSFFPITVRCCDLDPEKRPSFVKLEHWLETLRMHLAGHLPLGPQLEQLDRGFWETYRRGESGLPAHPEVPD

Regarding `C[C@@H](Oc1cc(C(=O)Nc2ccc(C(=O)N3CCN(C)CC3)cc2)nnc1N)c1c(Cl)ccc(F)c1Cl`, the Kd in assay [1], in assay [2], in assay [3], in assay [4], in assay [5] and in assay [6] was > 30 µM (inactive) in each case.

For `C[C@H]1CNCCCN1S(=O)(=O)c1cccc2cncc(F)c12`, the Kd in assay [1], in assay [7], in assay [2], in assay [3], in assay [5] and in assay [6] was > 30 µM (inactive) each time.

As for `Nc1ncnc2c1c(-c1cccc(OCc3ccccc3)c1)cn2[C@H]1C[C@@H](CN2CCC2)C1` [AEW-541], the Kd in assay [1] was 0.835 µM (active); in assay [7], > 30 µM (inactive); in assay [2], > 30 µM (inactive); in assay [3], > 30 µM (inactive); in assay [4] it was > 30 µM (inactive); in assay [5] it was > 30 µM (inactive). The Kd in assay [6] is > 30 µM (inactive).

On to `Cc1cc(Nc2ncc(Cl)c(Nc3ccccc3S(=O)(=O)C(C)C)n2)c(OC(C)C)cc1C1CCNCC1` [CERITINIB], for which the Kd in assay [1], in assay [7], in assay [2], in assay [3], in assay [4] and in assay [5] was > 30 µM (inactive) each time. In assay [6], the Kd is 0.027 µM (active).

In the case of `CCS(=O)(=O)N1CCN(c2ccc(Nc3ncc(C(N)=O)c(NC4CC4)n3)cc2)CC1` [Cerdulatinib Hydrochloride], the Kd in assay [1], in assay [7], in assay [2], in assay [3], in assay [4] and in assay [5] was > 30 µM (inactive) throughout. Besides, the Kd in assay [6] was > 30 µM (inactive).

Take `Cn1cc(C2=C(c3cn(C4CCN(Cc5ccccn5)CC4)c4ccccc34)C(=O)NC2=O)c2ccccc21` [ENZASTAURIN]: the Kd in assay [7], in assay [2] and in assay [5] was > 30 µM (inactive) each time.

Take `CCn1cc(-c2ccnc3[nH]c(-c4cccc(CN(C)C)c4)cc23)c(-c2ccc(NC(=O)N(C)C)cc2)n1` [GSK-1070916]: the Kd in assay [1], in assay [7], in assay [2], in assay [3], in assay [4] and in assay [5] was > 30 µM (inactive) throughout.

In the case of `O=C(Nc1cc(C(F)(F)F)cc(C(F)(F)F)c1)c1cc(Cl)ccc1O` [IMD-0354], the Kd in assay [1], in assay [7], in assay [2], in assay [4], in assay [5] and in assay [6] was > 30 µM (inactive) throughout.

Take `CNC(=O)c1nn(C)c2c1C(C)(C)Cc1cnc(Nc3ccc(N4CCN(C)CC4)cc3)nc1-2` [MILCICLIB]: the Kd is 3.01 µM (active) in assay [1]; > 30 µM (inactive) in assay [2]; > 30 µM (inactive) in assay [3]; > 30 µM (inactive) in assay [4]; > 30 µM (inactive) in assay [5]; 5.68 µM (active) in assay [6].

`FC(F)(F)c1ccc(/C=C/c2nc(COc3ccc(CCCCn4ccnn4)cc3)co2)cc1` [MUBRITINIB]: the Kd in assay [1], in assay [7], in assay [2], in assay [3], in assay [4] and in assay [5] was > 30 µM (inactive) in each case. In addition, the Kd in assay [6] was > 30 µM (inactive).

As for `Cc1[nH]c(/C=C2\C(=O)Nc3ccccc32)c(C)c1CCC(=O)O` [ORANTINIB], the Kd in assay [1], in assay [7], in assay [2], in assay [4] and in assay [5] was > 30 µM (inactive) each time.

As to `NC(=O)c1c(OCc2c(F)cc(Br)cc2F)nsc1NC(=O)NCCCCN1CCCC1` [OSI-632], the Kd in assay [1] was 3.05 µM; in assay [2], > 30 µM (inactive); in assay [5] it was > 30 µM (inactive); in assay [6], > 30 µM (inactive).

As to `CO[C@H]1C[C@@H]2CC[C@@H](C)[C@@](O)(O2)C(=O)C(=O)N2CCCC[C@H]2C(=O)O[C@H]([C@H](C)C[C@@H]2CC[C@@H](OP(C)(C)=O)[C@H](OC)C2)CC(=O)[C@H](C)/C=C(\C)[C@@H](O)[C@@H](OC)C(=O)[C@H](C)C[C@H](C)/C=C/C=C/C=C/1C` [RIDAFOROLIMUS], the Kd in assay [1], in assay [7], in assay [2], in assay [3], in assay [4] and in assay [5] was > 30 µM (inactive) throughout. For the same molecule, the Kd in assay [6] was > 30 µM (inactive).

As for `N#CC[C@H](C1CCCC1)n1cc(-c2ncnc3[nH]ccc23)cn1` [RUXOLITINIB], the Kd in assay [7], in assay [2] and in assay [5] was > 30 µM (inactive) throughout.

Take `CN1CCN(CCOc2cc(OC3CCOCC3)c3c(Nc4c(Cl)ccc5c4OCO5)ncnc3c2)CC1` [SARACATINIB]: the equilibrium dissociation constant (Kd) in assay [1] was 0.275 µM (active); in assay [7] it was > 30 µM (inactive); in assay [2], > 30 µM (inactive); in assay [3], > 30 µM (inactive); in assay [5], > 30 µM (inactive); in assay [6], > 30 µM (inactive).
